Tested on: pentagastrin-stimulated acid secretion of the perfused rat stomach
Test: Secretion-inhibiting action on the perfused rat stomach (pentagastrin-stimulated acid secretion)
Type: in vivo
Conditions: anesthetized CD rat, dose 2.2 μmol/kg i.d. (intraduodenal)
From the text: Testing of the Secretion-Inhibiting Action on the Perfused Rat Stomach
In Table A which follows, the influence of the compounds according to the invention on the pentagastrin-stimulated acid secretion of the perfused rat stomach after intraduodenal administration in vivo is shown.
The abdomen of anesthetized rats (CD rat, female, 200-250 g; 1.5 g/kg i.m. urethane) was opened after tracheotomy by a median upper abdominal incision and a PVC catheter was fixed transorally in the esophagus and another via the pylorus such that the ends of the tubes just projected into the gastric lumen. The catheter leading from the pylorus led outward into the right abdominal wall through a side opening.
After thorough rinsing (about 50-100 ml), warm (37° C.) physiological NaCl solution was continuously passed through the stomach (0.5 ml/min, pH 6.8-6.9; Braun-Unita I). The pH (pH meter 632, glass electrode EA 147; φ=5 mm, Metrohm) and, by titration with a freshly prepared 0.01N NaOH solution to pH 7 (Dosimat 665 Metrohm), the secreted HCl were determined in the effluent in each case collected at an interval of 15 minutes.
The gastric secretion was stimulated by continuous infusion of 1 μg/kg (=1.65 ml/h) of i.v. pentagastrin (left femoral vein) about 30 min after the end of the operation (i.e. after determination of 2 preliminary fractions). The substances to be tested were administered intraduodenally in a 2.5 ml/kg liquid volume 60 min after the start of the continuous pentagastrin infusion.
The body temperature of the animals was kept at a constant 37.8-38° C. by infrared irradiation and heat pads (automatic, stepless control by means of a rectal temperature sensor).

SMILES	Inhibition of acid secretion (%)
COc1ccc2nc([S@@+]([O-])Cc3nccc(N4CCOCC4)c3Cl)[nH]c2n1 [Example 2, (S)-2-(3-Chloro-4-morpholin-4-yl-pyridin-2-ylmethanesulfinyl)-5-methoxy-3H-imidazo[4,5-b]pyridine]	>50%
COc1ccc2nc([S+]([O-])Cc3nccc(N4CCOCC4)c3Cl)[nH]c2n1 (stereo not drawn) [Example 1, 2-(3Chloro-4-morpholin-4-yl-pyridin-2-ylmethanesulfinyl)-5-methoxy-3H-imidazo[4,5-b]pyridine]	>50%
COc1ccc2nc([S@+]([O-])Cc3nccc(N4CCOCC4)c3Cl)[nH]c2n1 [Example 3, (R)-2-(3-Chloro-4-morpholin-4-yl-pyridin-2-ylmethanesulfinyl)-5-methoxy-3H-imidazo[4,5-]pyridine]	>50%

Source: patent US20070244115A1, “Amino-Halogen-Imidazopyridines as Proton Pump Inhibitors” (Alana Pharma AG, priority 2004, published 2007)
